For experiment [1], the target named is T1, BRM (Homo sapiens, UniProt P51531).
T1 construct: made in house; host or cells: High Five insect cells
Description: ATPase catalytic activity of BRM, ADP-Glo in vitro biochemical assay. The settings on record: ATPase catalytic activity, 30 nM BRM, 400 μM ATP, read-out: BRM IP50 (μM)*. In general terms: ADP-Glo turns the ADP formed in a reaction into a luminescent signal.

In experiment [2] the target is T2, BRG-1 (Homo sapiens, UniProt P51532).
T2 construct: made in house; host or cells: High Five insect cells
Put plainly: ATPase catalytic activity of BRG-1, ADP-Glo in vitro biochemical assay. The settings on record: ATPase catalytic activity, 30 nM BRG-1, 400 μM ATP, read-out: BRG1 IP50 (μM)*.

T1 sequence (P51531 whole entry): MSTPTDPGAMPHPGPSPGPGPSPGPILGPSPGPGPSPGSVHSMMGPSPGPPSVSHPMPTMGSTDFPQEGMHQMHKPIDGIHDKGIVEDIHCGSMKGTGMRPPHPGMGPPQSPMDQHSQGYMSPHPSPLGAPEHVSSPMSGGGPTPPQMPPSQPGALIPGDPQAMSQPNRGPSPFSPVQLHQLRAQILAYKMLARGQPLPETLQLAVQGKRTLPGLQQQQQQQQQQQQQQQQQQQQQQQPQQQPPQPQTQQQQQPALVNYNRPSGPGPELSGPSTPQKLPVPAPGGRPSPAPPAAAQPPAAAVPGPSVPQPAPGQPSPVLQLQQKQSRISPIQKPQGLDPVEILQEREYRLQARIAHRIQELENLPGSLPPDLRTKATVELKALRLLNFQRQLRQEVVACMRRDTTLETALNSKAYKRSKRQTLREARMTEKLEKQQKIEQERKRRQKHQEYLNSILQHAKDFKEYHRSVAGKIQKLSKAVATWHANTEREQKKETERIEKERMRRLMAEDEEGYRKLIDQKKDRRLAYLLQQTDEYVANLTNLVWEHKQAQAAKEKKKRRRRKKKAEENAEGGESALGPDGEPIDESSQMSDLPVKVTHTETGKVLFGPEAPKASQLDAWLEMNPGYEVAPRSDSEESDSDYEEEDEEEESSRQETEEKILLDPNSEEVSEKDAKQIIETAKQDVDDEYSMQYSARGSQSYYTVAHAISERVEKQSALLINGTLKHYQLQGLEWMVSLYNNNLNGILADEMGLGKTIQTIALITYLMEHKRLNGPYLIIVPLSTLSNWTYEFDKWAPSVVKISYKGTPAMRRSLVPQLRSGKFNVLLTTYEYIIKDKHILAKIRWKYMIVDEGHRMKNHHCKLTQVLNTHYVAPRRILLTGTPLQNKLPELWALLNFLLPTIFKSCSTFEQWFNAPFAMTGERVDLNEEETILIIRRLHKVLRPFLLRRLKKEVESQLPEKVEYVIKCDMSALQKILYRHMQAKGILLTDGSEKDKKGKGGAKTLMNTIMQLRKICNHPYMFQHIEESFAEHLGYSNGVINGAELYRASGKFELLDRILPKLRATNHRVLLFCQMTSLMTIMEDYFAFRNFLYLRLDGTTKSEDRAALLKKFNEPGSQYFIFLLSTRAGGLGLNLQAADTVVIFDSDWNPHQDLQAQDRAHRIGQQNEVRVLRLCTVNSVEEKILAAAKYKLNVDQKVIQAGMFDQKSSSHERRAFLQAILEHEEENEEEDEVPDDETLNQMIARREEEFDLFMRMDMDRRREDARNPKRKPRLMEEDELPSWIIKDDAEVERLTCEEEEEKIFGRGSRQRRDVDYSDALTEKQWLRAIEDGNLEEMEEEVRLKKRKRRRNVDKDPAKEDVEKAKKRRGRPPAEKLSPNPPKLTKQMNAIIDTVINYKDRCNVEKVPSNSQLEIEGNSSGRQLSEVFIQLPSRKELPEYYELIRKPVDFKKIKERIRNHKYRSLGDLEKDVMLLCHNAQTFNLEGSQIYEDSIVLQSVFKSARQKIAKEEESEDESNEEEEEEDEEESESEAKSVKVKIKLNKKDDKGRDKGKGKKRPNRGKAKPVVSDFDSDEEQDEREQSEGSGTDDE
T2 sequence (P51532 whole entry): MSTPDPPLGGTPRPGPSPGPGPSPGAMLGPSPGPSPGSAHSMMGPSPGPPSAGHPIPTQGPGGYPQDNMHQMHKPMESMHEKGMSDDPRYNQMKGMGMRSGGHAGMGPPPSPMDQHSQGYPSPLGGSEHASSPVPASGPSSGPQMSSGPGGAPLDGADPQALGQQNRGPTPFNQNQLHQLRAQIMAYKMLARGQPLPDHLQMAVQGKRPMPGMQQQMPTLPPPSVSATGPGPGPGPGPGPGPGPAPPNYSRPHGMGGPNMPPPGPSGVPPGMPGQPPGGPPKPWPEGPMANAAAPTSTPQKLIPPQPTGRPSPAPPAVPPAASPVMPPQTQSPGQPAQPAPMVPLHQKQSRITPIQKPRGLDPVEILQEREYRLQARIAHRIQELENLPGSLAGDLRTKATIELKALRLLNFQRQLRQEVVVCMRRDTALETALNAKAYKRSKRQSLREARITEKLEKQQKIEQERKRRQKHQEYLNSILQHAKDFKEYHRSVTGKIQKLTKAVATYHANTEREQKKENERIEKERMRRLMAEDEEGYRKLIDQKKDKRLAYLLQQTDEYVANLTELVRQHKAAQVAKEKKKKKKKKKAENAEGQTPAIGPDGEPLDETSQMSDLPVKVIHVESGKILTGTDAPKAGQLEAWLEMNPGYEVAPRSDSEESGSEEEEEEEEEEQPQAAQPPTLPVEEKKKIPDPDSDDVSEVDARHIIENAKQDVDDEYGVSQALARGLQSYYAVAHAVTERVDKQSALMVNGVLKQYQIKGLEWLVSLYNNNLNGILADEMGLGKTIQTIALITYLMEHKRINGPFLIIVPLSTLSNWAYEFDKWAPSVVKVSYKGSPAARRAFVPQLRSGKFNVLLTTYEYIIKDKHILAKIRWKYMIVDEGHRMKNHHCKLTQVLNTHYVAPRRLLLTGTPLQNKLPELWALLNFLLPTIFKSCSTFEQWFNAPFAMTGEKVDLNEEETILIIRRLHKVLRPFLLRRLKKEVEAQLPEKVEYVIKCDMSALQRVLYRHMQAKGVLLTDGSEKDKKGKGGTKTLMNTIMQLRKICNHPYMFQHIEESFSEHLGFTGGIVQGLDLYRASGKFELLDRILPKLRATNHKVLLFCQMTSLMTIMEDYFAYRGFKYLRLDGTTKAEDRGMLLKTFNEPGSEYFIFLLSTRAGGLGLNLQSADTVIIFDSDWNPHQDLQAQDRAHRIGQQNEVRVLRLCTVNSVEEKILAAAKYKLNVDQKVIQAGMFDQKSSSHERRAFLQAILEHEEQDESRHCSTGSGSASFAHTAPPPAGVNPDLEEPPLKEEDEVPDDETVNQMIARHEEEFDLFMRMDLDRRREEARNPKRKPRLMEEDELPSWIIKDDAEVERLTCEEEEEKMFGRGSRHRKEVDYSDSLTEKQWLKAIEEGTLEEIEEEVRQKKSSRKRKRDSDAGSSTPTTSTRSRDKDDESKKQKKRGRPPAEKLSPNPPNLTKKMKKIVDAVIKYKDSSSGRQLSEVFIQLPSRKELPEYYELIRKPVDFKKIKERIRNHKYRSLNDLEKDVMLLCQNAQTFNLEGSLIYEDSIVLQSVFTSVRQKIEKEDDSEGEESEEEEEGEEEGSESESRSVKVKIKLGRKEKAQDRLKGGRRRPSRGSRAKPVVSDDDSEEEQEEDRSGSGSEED

For the compound `CN1CCc2cc(-c3csc(NC(=O)CNC(=O)c4ccn(S(C)(=O)=O)c4)n3)ccc2C1` [Compound 130, N-(2-((4-(2-methyl-1,2,3,4-tetrahydroisoquinolin-6-yl)thiazol-2-yl)amino)-2-oxoethyl)-1-(methylsulfonyl)-1H-pyrrole-3-carboxamide], the IC50 in experiment [1] and in experiment [2] was greater than 0.1 µM each time.
In the case of `Cn1ncc2ccc(-c3csc(NC(=O)CNC(=O)c4ccn(C(C)(C)C)c4)n3)cc21` [Compound 131, 1-(tert-butyl)-N-(2-((4-(1-methyl-1H-indazol-6-yl)thiazol-2-yl)amino)-2-oxoethyl)-1H-pyrrole-3-carboxamide], the IC50 in experiment [1] is greater than 0.01 µM; in experiment [2], greater than 0.1 µM.
For `Cn1ncc2ccc(-c3csc(NC(=O)CNC(=O)c4ccn(S(C)(=O)=O)c4)n3)cc21` [Compound 132, N-(2-((4-(1-methyl-1H-indazol-6-yl)thiazol-2-yl)amino)-2-oxoethyl)-1-(methylsulfonyl)-1H-pyrrole-3-carboxamide], in that order: greater than 0.01 µM and greater than 0.01 µM.
Consider `Cn1c(=O)ccc2ccc(-c3csc(NC(=O)CNC(=O)c4ccn(C(C)(C)C)c4)n3)cc21` [Compound 133, 1-(tert-butyl)-N-(2-((4-(1-methyl-2-oxo-1,2-dihydroquinolin-7-yl)thiazol-2-yl)amino)-2-oxoethyl)-1H-pyrrole-3-carboxamide], for which the IC50 in experiment [1] and in experiment [2] was greater than 0.1 µM in each case.
For the compound `CN1Cc2ccc(-c3csc(NC(=O)CNC(=O)c4ccn(C(C)(C)C)c4)n3)cc2N(C)C1=O` [Compound 134, 1-(tert-butyl)-N-(2-((4-(1,3-dimethyl-2-oxo-1,2,3,4-tetrahydroquinazolin-7-yl)thiazol-2-yl)amino)-2-oxoethyl)-1H-pyrrole-3-carboxamide], the IC50 in experiment [1] was greater than 0.01 µM; in experiment [2], greater than 0.1 µM.
For `CC(C)(C)n1ccc(C(=O)NCC(=O)Nc2nc(-c3cccc(CO[C@H]4CCOC4)c3)cs2)c1` [Compound 135, (S)-1-(tert-butyl)-N-(2-oxo-2-((4-(3-(((tetrahydrofuran-3-yl)oxy)methyl)phenyl)thiazol-2-yl)amino)ethyl)-1H-pyrrole-3-carboxamide], in that order: greater than 0.01 µM and greater than 0.01 µM.
Consider `CC(C)(C)n1ccc(C(=O)NCC(=O)Nc2nc(-c3cccc(CO[C@@H]4CCOC4)c3)cs2)c1` [Compound 136, (R)-1-(tert-butyl)-N-(2-oxo-2-((4-(3-(((tetrahydrofuran-3-yl)oxy)methyl)phenyl)thiazol-2-yl)amino)ethyl)-1H-pyrrole-3-carboxamide], for which the IC50 in experiment [1] and in experiment [2] was greater than 0.01 µM in each case.
With `CN1CCc2ccc(-c3csc(NC(=O)CNC(=O)c4ccn(S(C)(=O)=O)c4)n3)cc2C1=O` [Compound 137, N-(2-((4-(2-methyl-1-oxo-1,2,3,4-tetrahydroisoquinolin-7-yl)thiazol-2-yl)amino)-2-oxoethyl)-1-(methylsulfonyl)-1H-pyrrole-3-carboxamide], the IC50 was greater than 0.01 µM in experiment [1] and less than 0.01 µM in experiment [2].
For `CS(=O)(=O)n1ccc(C(=O)NCC(=O)Nc2nc(-c3cccc(C4(N)CCOCC4)c3)cs2)c1` [Compound 138, N-(2-((4-(3-(4-aminotetrahydro-2H-pyran-4-yl)phenyl)thiazol-2-yl)amino)-2-oxoethyl)-1-(methylsulfonyl)-1H-pyrrole-3-carboxamide], in that order: greater than 1 µM and greater than 1 µM.
For `CC(C)(O)c1cccc(-c2csc(NC(=O)CNC(=O)c3ccn(S(C)(=O)=O)c3)n2)c1` [Compound 139, N-(2-((4-(3-(2-hydroxypropan-2-yl)phenyl)thiazol-2-yl)amino)-2-oxoethyl)-1-(methylsulfonyl)-1H-pyrrole-3-carboxamide], in that order: greater than 0.1 µM and greater than 0.1 µM.
For `CC(C)(C)c1cccc(-c2csc(NC(=O)CNC(=O)c3ccn(S(C)(=O)=O)c3)n2)c1` [Compound 140, N-(2-((4-(3-(tert-butyl)phenyl)thiazol-2-yl)amino)-2-oxoethyl)-1-(methylsulfonyl)-1H-pyrrole-3-carboxamide], in that order: greater than 0.1 µM and greater than 0.1 µM.
As for `CS(=O)(=O)n1ccc(C(=O)NCC(=O)Nc2nc(-c3cccc(C4(O)CCOCC4)c3)cs2)c1` [Compound 141, N-(2-((4-(3-(4-hydroxytetrahydro-2H-pyran-4-yl)phenyl)thiazol-2-yl)amino)-2-oxoethyl)-1-(methylsulfonyl)-1H-pyrrole-3-carboxamide], the IC50 in experiment [1] and in experiment [2] was greater than 0.1 µM throughout.
For the compound `CC(C)(C)n1ccc(C(=O)NCC(=O)Nc2nc(-c3ccc4cncnc4c3)cs2)c1` [Compound 142], the IC50 in experiment [1] and in experiment [2] was greater than 0.1 µM each time.
`CN1CCn2nc(-c3cccc(-c4csc(NC(=O)CNC(=O)c5ccn(C(C)(C)C)c5)n4)c3)cc2C1` [Compound 143, 1-(tert-butyl)-N-(2-((4-(3-(5-methyl-4,5,6,7-tetrahydropyrazolo[1,5-a]pyrazin-2-yl)phenyl)thiazol-2-yl)amino)-2-oxoethyl)-1H-pyrrole-3-carboxamide]: the IC50 in experiment [1] and in experiment [2] was greater than 0.1 µM throughout.
`Cn1ccc(-c2cccc(-c3csc(NC(=O)CNC(=O)c4ccn(C5(C)COC5)c4)n3)c2)n1` [Compound 144]: the IC50 in experiment [1] and in experiment [2] was greater than 0.01 µM in each case.
On to `Cn1ccc(-c2cccc(-c3csc(NC(=O)CNC(=O)c4ccn(C(C)(C)C)c4)n3)n2)n1` [Compound 145], for which the IC50 in experiment [1] and in experiment [2] was greater than 0.01 µM in each case.
Regarding `CS(=O)(=O)n1ccc(C(=O)NCC(=O)Nc2nc(-c3c[nH]c(-c4ccncc4)n3)cs2)c1` [Compound 146, 1-(methylsulfonyl)-N-(2-oxo-2-((4-(2-(pyridin-4-yl)-1H-imidazol-4-yl)thiazol-2-yl)amino)ethyl)-1H-pyrrole-3-carboxamide], the IC50 in experiment [1] and in experiment [2] was greater than 1 µM in each case.
On to `CS(=O)(=O)n1ccc(C(=O)NCC(=O)Nc2nc(-c3cccc(OCc4ccncc4)n3)cs2)c1` [Compound 147], for which the IC50 is less than 0.01 µM in experiment [1] and greater than 0.01 µM in experiment [2].
For `CS(=O)(=O)n1ccc(C(=O)NCC(=O)Nc2nc(-c3cccc(/C=C/c4ccncc4)c3)cs2)c1` [Compound 150], in that order: less than 0.01 µM and less than 0.01 µM.
For `CS(=O)(=O)n1ccc(C(=O)NCC(=O)Nc2nc(-c3cccc(CCc4ccncc4)c3)cs2)c1` [Compound 151, 1-(methylsulfonyl)-N-(2-oxo-2-((4-(3-(2-(pyridin-4-yl)ethyl)phenyl)thiazol-2-yl)amino)ethyl)-1H-pyrrole-3-carboxamide], the IC50 in experiment [1] and in experiment [2] was less than 0.01 µM in each case.
For `CN(C(=O)CNC(=O)c1ccn(S(C)(=O)=O)c1)c1nc(-c2cccc(-c3ccncc3)c2)cs1` [Compound 152], the IC50 in experiment [1] and in experiment [2] was greater than 0.1 µM throughout.
For the compound `CC(C)(NC(=O)c1ccn(S(C)(=O)=O)c1)C(=O)Nc1nc(-c2cccc(-c3ccncc3)c2)cs1` [Compound 153], the IC50 in experiment [1] and in experiment [2] was greater than 0.1 µM in each case.
As to `Cc1cc(-c2cccc(-c3csc(NC(=O)CNC(=O)c4ccn(S(C)(=O)=O)c4)n3)c2)ccn1` [Compound 154], the IC50 in experiment [1] and in experiment [2] was less than 0.01 µM in each case.
For `CS(=O)(=O)n1ccc(C(=O)NCC(=O)Nc2cccc(-c3cccc(-c4ccncc4)c3)n2)c1` [Compound 156, 1-(methylsulfonyl)-N-(2-oxo-2-((6-(3-(pyridin-4-yl)phenyl)pyridin-2-yl)amino)ethyl)-1H-pyrrole-3-carboxamide], the IC50 in experiment [1] and in experiment [2] was greater than 0.01 µM throughout.
`CC1(C)OCC12CN(c1cccc(-c3csc(NC(=O)CNC(=O)c4ccn(S(C)(=O)=O)c4)n3)c1)C2` [Compound 157]: the IC50 in experiment [1] and in experiment [2] was greater than 0.1 µM each time.
Take `C[C@H]1CN(c2cccc(-c3csc(NC(=O)CNC(=O)c4ccn(S(C)(=O)=O)c4)n3)c2)[C@@H](C)CO1` [Compound 160]: the IC50 is greater than 0.01 µM in experiment [1] and greater than 0.1 µM in experiment [2].
For `CO[C@@H]1CCCN(c2cccc(-c3csc(NC(=O)CNC(=O)c4ccn(S(C)(=O)=O)c4)n3)c2)C1` [Compound 161], in that order: greater than 0.01 µM and greater than 0.01 µM.
Regarding `C[C@@H]1CN(c2cccc(-c3csc(NC(=O)CNC(=O)c4ccn(C(C)(C)C#N)c4)n3)c2)C[C@H](C)O1` [Compound 162], the IC50 in experiment [1] and in experiment [2] was less than 0.01 µM throughout.
As for `C[C@@H]1CN(c2cccc(-c3csc(NC(=O)CNC(=O)c4ccn(C5(C#N)CC5)c4)n3)c2)C[C@H](C)O1` [Compound 163], the IC50 is less than 0.01 µM in experiment [1] and greater than 0.01 µM in experiment [2].
Regarding `CC1(C)CN(c2cccc(-c3csc(NC(=O)CNC(=O)c4ccn(S(C)(=O)=O)c4)n3)c2)CC[C@H]1O` [Compound 164], the IC50 is less than 0.01 µM in experiment [1] and greater than 0.01 µM in experiment [2].
Take `CC1(C)CN(c2cccc(-c3csc(NC(=O)CNC(=O)c4ccn(S(C)(=O)=O)c4)n3)c2)CC[C@@H]1O` [Compound 165]: the IC50 in experiment [1] and in experiment [2] was greater than 0.01 µM in each case.
For the compound `CO[C@@H]1CN(c2cccc(-c3csc(NC(=O)CNC(=O)c4ccn(S(C)(=O)=O)c4)n3)c2)C[C@H]1F` [Compound 168], the IC50 in experiment [1] and in experiment [2] was greater than 0.01 µM in each case.
With `CS(=O)(=O)n1ccc(C(=O)NCC(=O)Nc2nc(-c3cccc(N4CCC(CO)(C(F)(F)F)C4)c3)cs2)c1` (stereo not shown) [Compound 169], the IC50 in experiment [1] and in experiment [2] was greater than 0.1 µM each time.
In the case of `CS(=O)(=O)n1ccc(C(=O)NCC(=O)Nc2nc(-c3cccc(N4CC5(CCCCO5)C4)c3)cs2)c1` [Compound 170], the IC50 in experiment [1] and in experiment [2] was greater than 0.01 µM in each case.
Consider `CS(=O)(=O)n1ccc(C(=O)NCC(=O)Nc2nc(-c3cccc(N4CC5(CCCOC5)C4)c3)cs2)c1` [Compound 171], for which the IC50 in experiment [1] and in experiment [2] was greater than 0.1 µM each time.

For the origin of these results see patent US20230079819A1, “COMPOUNDS AND USES THEREOF” (Foghorn Therapeutics Inc., priority 2019, published 2023).
